Source: US20070134744A1, “Epothilone resistant cell lines” (priority 2000, published 2007)

Key:
EA10 cells = test: MTS growth inhibition assay; type: cell-based
Procedure: (§1) Growth inhibition may be analyzed using conventional methods, for example a MTS assay (PROMEGA, Wis.) may be used. In this assay approximately 4000 cells per well are seeded in 96 well plates in MEM supplemented with 10% fetal calf serum and incubated at 37° C. in 5.0% CO2. After 24 hours, dilutions of drug (concentration range used is between 1 nM and 1000 nM) are added and cells are allowed to incubate with drug for an additional 72 hours. The MTS reagent mixed with PMS (MTS:PMS 20:1 according to manufacturer's instructions) is then added and absorbance quantitated using a Thermomax microplate reader system according to conventional methods (Molecular Devices, Sunnyvale, Calif.). […] Six assays per drug per plate are performed.
(§2) Thus, at least two potential mechanisms of epothilone A resistance may exist—a lower resistance mechanism that is cross-resistant to TAXOL® and a higher, epothilone A specific resistance mechanism.

EA150 cells = test: MTS growth inhibition assay; type: cell-based
Procedure: as §1, §2

EA20 cells = test: MTS growth inhibition assay; type: cell-based
Procedure: as §1, §2

EA60 cells [1] = test: MTS growth inhibition assay; type: cell-based
Procedure: as §1, §2

MDA-MB-435 cells [2] = test: MTS growth inhibition assay; type: cell-based; conditions: MTS, 72 hours drug, Table 1
Procedure: as §1, §2

KB-31 cells = test: In vitro cell growth inhibition assay (methylene blue); type: cell-based, human; conditions: read-out: concentration half-maximally inhibiting proliferation
Procedure: Anti-proliferative assays are performed basically as described (Meyer et al., Int. J. Cancer 43:851 (1989)). Briefly, cells are seeded at 1.5×10^3 cells/well into 96-well microtiter plates and allowed to adhere by incubation overnight. Compounds are added in serial dilutions on day 1. The plates are then incubated for an additional 3 days, after which the cells are fixed with 3.3% v/v glutaraldehyde, washed with water and stained with 0.05% w/v methylene blue according to conventional methods. After washing, the dye is eluted with 3% HCl and the optical density measured at 665 nm with a SpectraMax Plus (Molecular Devices, Sunnyvale, Calif.) according to manufacturers instructions. IC50 values are determined by mathematical curve-fitting using the SoftPro2.6.1 program (Molecular Devices, Sunnyvale, Calif.) using the formula (OD treated−OD start)/(OD control−OD start)×100. […] IC50 determinations with the cell line 298/D4/40 are performed in the presence of 40 nM epothilone A.
The epothilone resistant cell lines, EpoA320-80C, EpoA320/ND, 298/D4/40, 297/C5/0 and 315/sc5.9 are generated as disclosed above. […] A subclone, 298/D4/40, is adapted to grow in the presence of 40 nM epothilone A administered twice weekly (i.e. at every medium change). […]

EA60 cells [3] = test: Cell cycle analysis by FACS; type: cell-based; conditions: 24 hours, 60 nM epothilone A
Procedure: (§3) Cells are fixed by resuspending in cold 70% ethanol, washing again with 5 ml of PBS and resuspending in PI solution ([…] propidium iodide, 38 mM sodium citrate, 20 μg/ml RNAse A). After incubation in PI solution at 37° C. for 30 minutes, cells are analyzed by flow cytometry according to conventional methodology (apparatus and software commercially available from Becton Dickinson Immunocytometry Systems, CA).
(§4) Cell cycle distribution patterns of epothilone A resistant and parental MDA-MB-435 epothilone A sensitive cells are compared by standard FACS analysis. […] Thus, a significant part of the epothilone A resistant cell population appears to overcome the G2/M block that normally occurs in the cell cycle of epothilone A sensitive cells.

MDA-MB-435 cells [4] = test: Cell cycle analysis by FACS; type: cell-based; conditions: 24 hours, 20 nM epothilone A
Procedure: as §3, §4

[5] = biological target: T1, tubulin in 297/C5/0 cell lysates (Homo sapiens, UniProt P07437, T274P); test: Cell-free tubulin polymerization assay; type: biochemical; conditions: 297/C5/0 lysates, 5 min 37° C., 0-100 μM, vs KB-31
T1 construct: endogenous in cells; host or cells: 297/C5/0 and 298/D4/40 sublines of KB-31 (intact cells or hypotonic lysates)
T1 sequence (P07437 whole entry T274P): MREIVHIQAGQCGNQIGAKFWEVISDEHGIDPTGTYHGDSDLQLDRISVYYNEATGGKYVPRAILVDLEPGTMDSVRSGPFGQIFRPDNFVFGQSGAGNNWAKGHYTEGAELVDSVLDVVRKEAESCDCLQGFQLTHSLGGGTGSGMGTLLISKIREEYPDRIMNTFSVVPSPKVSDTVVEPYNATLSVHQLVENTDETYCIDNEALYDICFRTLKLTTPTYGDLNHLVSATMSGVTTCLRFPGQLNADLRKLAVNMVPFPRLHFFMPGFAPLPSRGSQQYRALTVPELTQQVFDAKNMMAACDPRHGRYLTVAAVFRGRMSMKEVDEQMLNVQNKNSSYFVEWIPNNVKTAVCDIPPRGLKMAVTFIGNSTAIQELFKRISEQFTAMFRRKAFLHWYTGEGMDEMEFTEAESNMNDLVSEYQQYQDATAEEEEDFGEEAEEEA
T1 sequence (P68363 whole entry partner): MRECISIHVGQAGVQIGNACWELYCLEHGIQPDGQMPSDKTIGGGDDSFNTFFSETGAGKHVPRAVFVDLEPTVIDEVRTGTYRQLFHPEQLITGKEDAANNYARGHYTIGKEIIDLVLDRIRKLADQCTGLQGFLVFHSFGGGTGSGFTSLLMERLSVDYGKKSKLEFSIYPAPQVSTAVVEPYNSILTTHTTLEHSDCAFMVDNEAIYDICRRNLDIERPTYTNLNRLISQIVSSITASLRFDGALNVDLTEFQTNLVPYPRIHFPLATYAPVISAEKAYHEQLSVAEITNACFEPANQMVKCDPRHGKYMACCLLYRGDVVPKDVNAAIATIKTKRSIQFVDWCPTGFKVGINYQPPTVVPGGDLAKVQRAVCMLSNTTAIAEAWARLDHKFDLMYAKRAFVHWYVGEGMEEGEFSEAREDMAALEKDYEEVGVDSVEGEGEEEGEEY
Procedure: (§5) For the assessment of drug effects on the ratio between unpolymerized and polymerized tubulin in a cell-free system, cells are lysed at the time of drug addition and processed as follows. Cells are seeded and incubated for 18-24 hrs as described above. One plate at a time is then transferred to a dimmed tissue-culture hood and cells are washed twice with 1 ml of room temperature PBS/O. After careful removal of remaining PBS/O, 200 μl of room-temperature HLB/A containing test substances at the desired concentration is added to the cells. Final vehicle concentration is 1%. The plates are wrapped in aluminum foil and incubated for 5 min at 37° C. Lysates are then transferred to eppendorf tubes, vortexed for 5 seconds, followed by centrifugation for 30 minutes at room-temperature in a table-top centrifuge at 12′000×g. Further processing of the samples is performed as described above.
(§6) However, it was not clear from this experiment whether the decrease in epothilone A-mediated tubulin polymerization is due to decreased drug uptake or a genuine defect in tubulin functionality. To address this question, cells are lysed before incubation with epothilone A. Specifically, KB-31, 297/C5/0 and 298/D4/40 cells (2×10^5) are separately seeded in 6-well plates and allowed to adhere for 24 hrs. Cells are then lysed in hypotonic buffer containing 0, 1, 10 or 100 μM epothilone A. Vehicle (DMSO) concentration was 1%. Following incubation for 5 min at 37° C., samples are centrifuged to separate soluble from polymerized tubulin and the levels of unpolymerized tubulin is assessed by Western blotting as described above.

[6] = biological target: T2, tubulin in 298/D4/40 cell lysates (Homo sapiens, UniProt P07437, T274P); test: Cell-free tubulin polymerization assay; type: biochemical; conditions: 298/D4/40 lysates, 5 min 37° C., 0-100 μM
T2 construct: endogenous in cells; host or cells: 297/C5/0 and 298/D4/40 sublines of KB-31 (intact cells or hypotonic lysates)
T2 sequence (P07437 whole entry T274P): as the sequence (P07437 whole entry T274P) above
T2 sequence (P68363 whole entry partner): as the sequence (P68363 whole entry partner) above
Procedure: as §5, §6

[7] = biological target: T3, tubulin in KB-31 cell lysates (Homo sapiens, UniProt P07437); test: Cell-free tubulin polymerization assay; type: biochemical; conditions: KB-31 lysates, 5 min 37° C., 0-100 μM
T3 construct: decrease in the unpolymerized pool of tubulin in KB-31 cell lysates; endogenous in cells; host or cells: KB-31 human epidermoid carcinoma cells (intact cells or hypotonic lysates)
T3 sequence (P68363 whole entry): as the sequence (P68363 whole entry partner) above
T3 sequence (P07437 whole entry): as the sequence (P07437 whole entry T274P) above, with P274T counted along it
Procedure: as §5, §6

`C/C(=C\c1csc(C)n1)[C@@H]1C[C@@H]2O[C@@H]2CCC[C@H](C)[C@H](O)[C@@H](C)C(=O)C(C)(C)[C@@H](O)CC(=O)O1` [Epothilone A, epothilone A] was tested, and the “increase in IC50 over MDA-MB-435 cells” value (EA10 cells) was 5 fold, the IC50 (EA10 cells; MTS, 72 hours drug, Table 1) was 18 ± 3.8 nM and the “increase in IC50 over MDA-MB-435 cells” value (EA150 cells) was > 100 fold. The IC50 (EA150 cells; MTS, 72 hours drug, Table 1) was > 500 nM, the “increase in IC50 over MDA-MB-435 cells” value (EA20 cells) was 7 fold and the IC50 (EA20 cells; MTS, 72 hours drug, Table 1) was 28 ± 3 nM. For the same molecule, the “increase in IC50 over MDA-MB-435 cells” value (EA60 cells [1]) was 15 fold, the IC50 (EA60 cells [1]; MTS, 72 hours drug, Table 1) was 82 ± 1.5 nM and the IC50 (MDA-MB-435 cells [2]) was 4 ± 1.8 nM. The IC50 (KB-31 cells) was 3.2 nM, the cell cycle distribution (EA60 cells [3]) was “overcomes the G2/M phase block” and the cell cycle distribution (MDA-MB-435 cells [4]) was “blocked at the G2/M phase”. For the same molecule, the “dose-response curve for unpolymerized tubulin in cell lysates” value [5] was “shifted to higher concentrations”, the “changes in unpolymerized tubulin in cell lysates” value [6] was “completely refractory” and the “unpolymerized tubulin in cell lysates” value [7] was “dose-dependent decrease in the unpolymerized pool of tubulin”.
